Patent US20170258871A1, “COMBINED USE OF A TRKA INHIBITOR AND AN EPHA2 INHIBITOR FOR USING IN THE TREATMENT OF SOLID CANCERS, AND METHOD FOR THE PROGNOSIS OF SURVIVAL OF A PATIENT WHO HAS A SOLID CANCER” (UNIVERSITE DES SCIENCES ET TECHNOLOGIES DE LILLE, priority 2014, published 2017)

Assays:
Format in all cases: cell-based
[1] = target: T1, TrkA/sortilin/EphA2 complex (Homo sapiens, UniProt Q99523); test: Immunoprecipitation of the TrkA/sortilin/EphA2 complex in cells MDA-MB-231 HA-TrkA; conditions: MDA-MB-231 HA-TrkA
T1 construct: expressed in transfected cells
T1 sequence (Q99523 78-831): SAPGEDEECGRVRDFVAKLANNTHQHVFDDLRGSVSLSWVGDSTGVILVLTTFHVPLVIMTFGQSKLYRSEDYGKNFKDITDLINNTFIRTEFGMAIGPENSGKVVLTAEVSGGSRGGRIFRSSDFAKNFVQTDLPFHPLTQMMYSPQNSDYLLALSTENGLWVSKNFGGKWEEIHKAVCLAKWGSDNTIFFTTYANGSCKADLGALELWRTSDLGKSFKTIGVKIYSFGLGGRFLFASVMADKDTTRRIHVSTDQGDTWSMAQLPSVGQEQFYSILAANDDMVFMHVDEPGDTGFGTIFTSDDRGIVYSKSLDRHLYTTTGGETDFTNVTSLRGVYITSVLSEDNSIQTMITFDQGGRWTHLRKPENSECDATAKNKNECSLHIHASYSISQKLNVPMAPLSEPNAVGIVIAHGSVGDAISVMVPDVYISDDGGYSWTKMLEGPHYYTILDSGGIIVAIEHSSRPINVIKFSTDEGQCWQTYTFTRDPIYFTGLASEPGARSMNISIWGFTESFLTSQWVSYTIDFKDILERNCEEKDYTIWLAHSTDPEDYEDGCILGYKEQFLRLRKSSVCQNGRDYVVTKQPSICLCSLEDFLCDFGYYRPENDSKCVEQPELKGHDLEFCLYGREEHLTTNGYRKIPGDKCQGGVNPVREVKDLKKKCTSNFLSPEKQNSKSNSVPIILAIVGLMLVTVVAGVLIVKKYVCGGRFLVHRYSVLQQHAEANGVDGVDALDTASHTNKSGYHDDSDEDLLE
Experimental: A. Cells MDA-MB-231 HA-TrkA were transfected with siTrkA and then treated with proNGF N.C.
D. Cells MDA-MB-231 HA-TrkA were transfected with siEphA2 and then treated with proNGF N.C. (30 min).
The sequences of siRNA used against EphA2 (siEphA2) at 100 pmol for each transfection, and against TrkA (pool of 3 siTrkA 1, 2 and 3) are given in table 1. The transfections of siRNA are produced by means of [sequence]in™ according to the manufacturers instructions (POL409-10, Polyplus transfection, Ozyme, Saint Quentin en Yvelines, France).
The beads (Protein G-agarose, Millipore) were washed twice (12,000 g; 1 min; 4° C.) and recovered in PBS IX (at 50% (v/v)). The protein samples (1 mg) were pre-clarified (1 h; 4° C.; on a wheel (10 rpm)) with 100 μl of beads and 5 μg of isotypical antibodies (mouse IgG2b), centrifuged (12,000 g; 2 min; 4° C.), then the supernatant was incubated (2 h; 4° C.; on a wheel (10 rpm)) with 5 μg of α-HA 12CA5 antibody (Roche). The beads (100 μL at 50% in PBS IX) were added directly to the antibody/protein complex then incubated (2 h; 4° C.; on a wheel (10 rpm)). The antibody/antigen/bead complexes were then centrifuged (12,000 g; 5 min; 4° C.), washed three times (lysis buffer; 4° C.), then disassociated by addition of Laemmli 2× buffer (25 mM Tris-HCl, 0.8% SDS, 4% glycerol, 1% β-mercaptoethanol, pH 6.8) (7 min; 100° C.). […]

CAL33 cells = test: In vitro invasion test (Boyden chamber), CAL 33; conditions: NGF 16 nM or proNGF N.C. 0.5 nM, untreated cells = 100%
Experimental: (0.5 nM) for a period of 20 hours. The untreated cells represent the control and determine a base invasion of 100%.
The Boyden Chambers (Transwell®; BD Biosciences; France) were recovered from a biological matrix (type 1 collagen from rats diluted to 400 μg·mL-1 in EMEM-0.1% FCS medium; Millipore). The cells were then seeded with 100,000 cells/well on PET membranes (polyethylene terephtalate; dia.: 10.5 mm; porosity: 8 μm) of Boyden Chambers and held in an EMEM-0.1% FCS medium. […] (0.5 nM) in the lower part. After 20 hours of culture, they were washed twice with PBS 1× and fixed (ice cold methanol; 15 min; −20° C.). The non-invasive cells (upper face of the Transwell®) were eliminated by scraping. The number of cells was estimated after staining with Hoechst 33 258 (1 mM; 30 min; 20° C.) by counting the nuclei thereof using fluorescence microscopy on a total of 5 five randomly chosen fields (lens 10×; λ-excitation: 345 nm; λ-emission: 478 nm; Eclipse Ti) using the ImageJ software. Each experiment was performed in triplicate. Statistical analysis of the results was performed by analysis of variance ANOVA (Bonferroni post-hoc test).

Akt = test: Western blot of Akt phosphorylation in MDA-MB-231 cells
Experimental: FIG. 8: A study of the role of TrkA and EphA2 in the activation of proteins Akt and Src. Cells MDA-MB-231 were respectively treated with a TrkA inhibitor (K252a), an anti-EphA2 siRNA (siEphA2), an inhibitor of PI3-K (LY294002) and an inhibitor of Src (SKI-1).
A and D. Cells MDA-MB-231 HA-TrkA were treated with proNGF N.C. […] The phosphorylation of Akt and Src was determined by using phospho-specific antibodies. The equal charge was verified using Akt and Src antibodies.
C and F. The phosphorylation of Akt and Src was determined in the total lysates coming from cells MDA-MB-231 transfected with siEphA2 and treated for 30 minutes with proNGF N.C. (C) or NGF (F).
After treatment, the cells were lysed (lysis buffer: 40 mM HEPES pH 7.5; 1 mM EDTA pH 8.0; 120 mM NaCl; 10 mM NaPPi; 50 mM NaF; 1.5 mM Na3VO4; 1% Triton X 100; 0.1% SDS; 1 mM PMSF; 10% glycerol and 1/100 th of protease inhibitor cocktail (Sigma) (20 min; 4° C.)). The lysates were recovered and clarified by centrifugation (12,000 g; 10 min; 4° C.). The supernatant was then stored at −80° C. until use. The protein extracts were diluted to 2 μg·μL−1 in a Laemmli 1× buffer (7 min; 100° C.) then deposited and separated on SDS-PAGE (concentration gel 3.6% acrylamide and separation gel 7.5% to 10% acrylamide (thickness 1 mm); 180 V; 10 min then 200 V constant; until output of the migration front). The proteins separated by SDS-PAGE were transferred according to the semi-dry transfer method (buffer: 48 mM Tris base, 39 mM glycine, 1.64 mM SDS, 20% methanol (v/v); 14 V; 15 min per gel) or liquid (buffer: 25 mM Tris base and 192 mM glycine; 15% methanol (v/v); 100 V; 30 min) on nitrocellulose membranes (0.45 μm; Whatman; Germany) or PVDF (0.45 μm; Immobilon P; Millipore; France). The PVDF membrane was “activated” beforehand (methanol; 10 min; 20° C.). The membranes were then saturated (TBS-T; 5% BSA; 1 h; 20° C.) then incubated (16 h; 4° C.) with the chosen primary antibody. […] The membranes were placed in an image analyser (LAS 4000; Fuji) connected to a computer which allowed image generation (software Image Reader LAS 4000).
The antibody against EphA2 was sc-924 (Santa Cruz), the antibody against sortilin was BD Bioscience 612101, the antibody against TrkA was sc 14024 (Santa Cruz), the antibody against HA was MMS-101R (Covance), the antibody against Akt was Cell Signaling 4691, the antibody against phospho-Akt (Ser 473) was Cell Signaling 9271, the antibody against Src was Cell Signaling 2109 (WB), the antibody against PhosphoSrc (Tyr416) was Cell Signaling 2105 and the antibody against actin was Sigma A2066.
Proteins Akt and Src were both involved in the pro-invasive effect of proNGF. In order to identify the role of TrkA and EphA2 in the activation of proteins Akt and Src, cells MDA-MB-231 were treated respectively with a TrkA inhibitor (K252a), an anti-EphA2 siRNA (siEphA2) the sequence of which is presented in table 1, a PI3-K inhibitor (LY294002) (the activation of Akt in effect underlies that of PI3-K) and an inhibitor of Src (SKI-1).

Substance	association of TrkA, sortilin and EphA2 (co-immunoprecipitation) under ligand treatment ([1]; 0.5 nM proNGF N.C. or 16 nM NGF, 5 and 30 min)	cell invasion under growth factor (CAL33 cells)	activation (phosphorylation) of Akt by the ligand (Akt; MDA-MB-231 HA-TrkA, 30 min)	formation of the TrkA/sortilin/EphA2 complex under proNGF with invalidation of a receptor ([1]; proNGF N.C., siRNA transfection or 1 μM neurotensin)	effect on Akt phosphorylation induced by NGF (Akt; NGF 30 min, 10 nM K252a or siEphA2)
NGF: Nerve Growth Factor; recombinant human β NGF supplied by Scil Proteins	induce a delayed association of TrkA and sortilin but does not induce bonding with EphA2	increased cell invasion	increased		
siEphA2: siRNA against EphA2, GCAAGGAAGUGGUACUGCUGGACUU (SEQ ID NO: 1) (listed as RNA, chemistry not given here)				no bond was observed between EphA2 and TrkA	reduces only the base activation of phospho-Akt and phospho-Src but not the phosphorylation induced by the NGF
